Assay results reported in PubChem BioAssay AID1963837 (Molecular Pharmacology Branch, DTP, NCI, 2024).

Tested on: 843126-344-R-J1-PDC complex spheroid viability
Experiment: Anticancer human tumor 843126-344-R-J1-PDC patient-derived melanoma cell line growth inhibition [POLQ]
Conditions: second compound 0.1 µM; first compound 1 µM; active compounds read low
How it was run: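 PDC + HUVEC + MSC complex spheroids; POLQ inhibitors ± partner drugs; top conc. at/near clinical Cmax, else 10 microM (SN-38 1 microM), half-log dilutions; 37 degrees C, 5% CO2.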
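Further: spheroids exposed to drugs for seven days before readout.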

In order of falling viability, T/C:
1. CC1COCCN1c1cc(C2(S(C)(=N)=O)CC2)nc(-c2ccnc3[nH]ccc23)n1 (configuration not stated) + Nc1ccc(C#CCN(C(=O)Cc2ncc(C(F)(F)F)cc2C(F)(F)F)c2ccc(F)cc2)nn1  103%
2. CC(C)n1c(=O)n(C)c2cnc3cc(F)c(-c4ccc(OCCCN5CCCCC5)nc4)cc3c21 + Nc1ccc(C#CCN(C(=O)Cc2ncc(C(F)(F)F)cc2C(F)(F)F)c2ccc(F)cc2)nn1  84.6%
3. COc1ccc([C@@H](O)c2cc(-c3ncnc4cc(N5CCOCC5)ccc34)c(F)cc2Cl)nn1 + Nc1ccc(C#CCN(C(=O)Cc2ncc(C(F)(F)F)cc2C(F)(F)F)c2ccc(F)cc2)nn1  82.9%
4. CC1COCCN1c1cc(-c2ccnn2C)c2ccnc(-c3ccn[nH]3)c2n1 (configuration not stated) + Nc1ccc(C#CCN(C(=O)Cc2ncc(C(F)(F)F)cc2C(F)(F)F)c2ccc(F)cc2)nn1  48.3%

Same assay, conditions: second compound 0.1 µM; first compound 3.16 µM; active compounds read low

In order of rising viability, T/C:
1. CC1COCCN1c1cc(-c2ccnn2C)c2ccnc(-c3ccn[nH]3)c2n1 (configuration not stated) + Nc1ccc(C#CCN(C(=O)Cc2ncc(C(F)(F)F)cc2C(F)(F)F)c2ccc(F)cc2)nn1  43.5%
2. CC1COCCN1c1cc(C2(S(C)(=N)=O)CC2)nc(-c2ccnc3[nH]ccc23)n1 (configuration not stated) + Nc1ccc(C#CCN(C(=O)Cc2ncc(C(F)(F)F)cc2C(F)(F)F)c2ccc(F)cc2)nn1  76.1%
3. CC(C)n1c(=O)n(C)c2cnc3cc(F)c(-c4ccc(OCCCN5CCCCC5)nc4)cc3c21 + Nc1ccc(C#CCN(C(=O)Cc2ncc(C(F)(F)F)cc2C(F)(F)F)c2ccc(F)cc2)nn1  90.7%
4. COc1ccc([C@@H](O)c2cc(-c3ncnc4cc(N5CCOCC5)ccc34)c(F)cc2Cl)nn1 + Nc1ccc(C#CCN(C(=O)Cc2ncc(C(F)(F)F)cc2C(F)(F)F)c2ccc(F)cc2)nn1  96%
5. C=CC(=O)N1CCN(c2nc(=O)n(-c3c(C)ccnc3C(C)C)c3nc(-c4c(O)cccc4F)c(F)cc23)C(C)C1 (configuration not stated) + Nc1ccc(C#CCN(C(=O)Cc2ncc(C(F)(F)F)cc2C(F)(F)F)c2ccc(F)cc2)nn1  99.2%

Same assay, conditions: second compound 0.1 µM; first compound 10 µM; active compounds read low

In order of falling viability, T/C:
1. C=CC(=O)N1CCN(c2nc(=O)n(-c3c(C)ccnc3C(C)C)c3nc(-c4c(O)cccc4F)c(F)cc23)C(C)C1 (configuration not stated) + Nc1ccc(C#CCN(C(=O)Cc2ncc(C(F)(F)F)cc2C(F)(F)F)c2ccc(F)cc2)nn1  85.6%
2. CC(C)n1c(=O)n(C)c2cnc3cc(F)c(-c4ccc(OCCCN5CCCCC5)nc4)cc3c21 + Nc1ccc(C#CCN(C(=O)Cc2ncc(C(F)(F)F)cc2C(F)(F)F)c2ccc(F)cc2)nn1  70.6%
3. COc1ccc([C@@H](O)c2cc(-c3ncnc4cc(N5CCOCC5)ccc34)c(F)cc2Cl)nn1 + Nc1ccc(C#CCN(C(=O)Cc2ncc(C(F)(F)F)cc2C(F)(F)F)c2ccc(F)cc2)nn1  68.1%
4. CC1COCCN1c1cc(C2(S(C)(=N)=O)CC2)nc(-c2ccnc3[nH]ccc23)n1 (configuration not stated) + Nc1ccc(C#CCN(C(=O)Cc2ncc(C(F)(F)F)cc2C(F)(F)F)c2ccc(F)cc2)nn1  55.8%
5. CC1COCCN1c1cc(-c2ccnn2C)c2ccnc(-c3ccn[nH]3)c2n1 (configuration not stated) + Nc1ccc(C#CCN(C(=O)Cc2ncc(C(F)(F)F)cc2C(F)(F)F)c2ccc(F)cc2)nn1  28.6%

Same assay, conditions: second compound 0.316 µM; first compound 0.000316 µM; active compounds read low

Work on `Cn1ncnc1[C@H]1c2n[nH]c(=O)c3cc(F)cc(c23)N[C@@H]1c1ccc(F)cc1` + Nc1ccc(C#CCN(C(=O)Cc2ncc(C(F)(F)F)cc2C(F)(F)F)c2ccc(F)cc2)nn1 yielded a viability, T/C of 108%.

Same assay, conditions: second compound 0.316 µM; first compound 0.001 µM; active compounds read low

Work on `Cn1ncnc1[C@H]1c2n[nH]c(=O)c3cc(F)cc(c23)N[C@@H]1c1ccc(F)cc1` + Nc1ccc(C#CCN(C(=O)Cc2ncc(C(F)(F)F)cc2C(F)(F)F)c2ccc(F)cc2)nn1 yielded a viability, T/C of 93.3%.

Same assay, conditions: second compound 0.316 µM; first compound 0.00316 µM; active compounds read low

`Cn1ncnc1[C@H]1c2n[nH]c(=O)c3cc(F)cc(c23)N[C@@H]1c1ccc(F)cc1` + Nc1ccc(C#CCN(C(=O)Cc2ncc(C(F)(F)F)cc2C(F)(F)F)c2ccc(F)cc2)nn1 gave a viability, T/C of 111%.

Same assay, conditions: second compound 0.316 µM; first compound 0.01 µM; active compounds read low

With `Cn1ncnc1[C@H]1c2n[nH]c(=O)c3cc(F)cc(c23)N[C@@H]1c1ccc(F)cc1` + Nc1ccc(C#CCN(C(=O)Cc2ncc(C(F)(F)F)cc2C(F)(F)F)c2ccc(F)cc2)nn1 the viability, T/C was 93.2%.

Same assay, conditions: second compound 0.316 µM; first compound 0.0316 µM; active compounds read low

In order of rising viability, T/C:
1. CC(C)n1c(=O)n(C)c2cnc3cc(F)c(-c4ccc(OCCCN5CCCCC5)nc4)cc3c21 + Nc1ccc(C#CCN(C(=O)Cc2ncc(C(F)(F)F)cc2C(F)(F)F)c2ccc(F)cc2)nn1  80.8%
2. CC1COCCN1c1cc(-c2ccnn2C)c2ccnc(-c3ccn[nH]3)c2n1 (configuration not stated) + Nc1ccc(C#CCN(C(=O)Cc2ncc(C(F)(F)F)cc2C(F)(F)F)c2ccc(F)cc2)nn1  85.3%
3. COc1ccc([C@@H](O)c2cc(-c3ncnc4cc(N5CCOCC5)ccc34)c(F)cc2Cl)nn1 + Nc1ccc(C#CCN(C(=O)Cc2ncc(C(F)(F)F)cc2C(F)(F)F)c2ccc(F)cc2)nn1  86%
4. CC1COCCN1c1cc(C2(S(C)(=N)=O)CC2)nc(-c2ccnc3[nH]ccc23)n1 (configuration not stated) + Nc1ccc(C#CCN(C(=O)Cc2ncc(C(F)(F)F)cc2C(F)(F)F)c2ccc(F)cc2)nn1  88.4%
5. C=CC(=O)N1CCN(c2nc(=O)n(-c3c(C)ccnc3C(C)C)c3nc(-c4c(O)cccc4F)c(F)cc23)C(C)C1 (configuration not stated) + Nc1ccc(C#CCN(C(=O)Cc2ncc(C(F)(F)F)cc2C(F)(F)F)c2ccc(F)cc2)nn1  89.3%
6. Cn1ncnc1[C@H]1c2n[nH]c(=O)c3cc(F)cc(c23)N[C@@H]1c1ccc(F)cc1 + Nc1ccc(C#CCN(C(=O)Cc2ncc(C(F)(F)F)cc2C(F)(F)F)c2ccc(F)cc2)nn1  99.8%

Same assay, conditions: second compound 0.316 µM; first compound 0.1 µM; active compounds read low

In order of falling viability, T/C:
1. Cn1ncnc1[C@H]1c2n[nH]c(=O)c3cc(F)cc(c23)N[C@@H]1c1ccc(F)cc1 + Nc1ccc(C#CCN(C(=O)Cc2ncc(C(F)(F)F)cc2C(F)(F)F)c2ccc(F)cc2)nn1  99.8%
2. CC(C)n1c(=O)n(C)c2cnc3cc(F)c(-c4ccc(OCCCN5CCCCC5)nc4)cc3c21 + Nc1ccc(C#CCN(C(=O)Cc2ncc(C(F)(F)F)cc2C(F)(F)F)c2ccc(F)cc2)nn1  95.4%
3. C=CC(=O)N1CCN(c2nc(=O)n(-c3c(C)ccnc3C(C)C)c3nc(-c4c(O)cccc4F)c(F)cc23)C(C)C1 (configuration not stated) + Nc1ccc(C#CCN(C(=O)Cc2ncc(C(F)(F)F)cc2C(F)(F)F)c2ccc(F)cc2)nn1  94.9%
4. CC1COCCN1c1cc(C2(S(C)(=N)=O)CC2)nc(-c2ccnc3[nH]ccc23)n1 (configuration not stated) + Nc1ccc(C#CCN(C(=O)Cc2ncc(C(F)(F)F)cc2C(F)(F)F)c2ccc(F)cc2)nn1  92.1%
5. COc1ccc([C@@H](O)c2cc(-c3ncnc4cc(N5CCOCC5)ccc34)c(F)cc2Cl)nn1 + Nc1ccc(C#CCN(C(=O)Cc2ncc(C(F)(F)F)cc2C(F)(F)F)c2ccc(F)cc2)nn1  90.3%
6. CC1COCCN1c1cc(-c2ccnn2C)c2ccnc(-c3ccn[nH]3)c2n1 (configuration not stated) + Nc1ccc(C#CCN(C(=O)Cc2ncc(C(F)(F)F)cc2C(F)(F)F)c2ccc(F)cc2)nn1  77.2%

Same assay, conditions: second compound 0.316 µM; first compound 0.316 µM; active compounds read low

In order of rising viability, T/C:
1. CC(C)n1c(=O)n(C)c2cnc3cc(F)c(-c4ccc(OCCCN5CCCCC5)nc4)cc3c21 + Nc1ccc(C#CCN(C(=O)Cc2ncc(C(F)(F)F)cc2C(F)(F)F)c2ccc(F)cc2)nn1  94.5%
2. C=CC(=O)N1CCN(c2nc(=O)n(-c3c(C)ccnc3C(C)C)c3nc(-c4c(O)cccc4F)c(F)cc23)C(C)C1 (configuration not stated) + Nc1ccc(C#CCN(C(=O)Cc2ncc(C(F)(F)F)cc2C(F)(F)F)c2ccc(F)cc2)nn1  104%
